Legend:
Type in all cases: cell-based
Pseudomonas aeruginosa = test: Minimum inhibitory concentration, agar dilution; conditions: trypticase soy agar, 2-fold serial dilutions
Aspergillus niger = test: Minimum inhibitory concentration, agar dilution; conditions: trypticase soy agar, 2-fold serial dilutions
Actinomyces viscosus = test: Minimum inhibitory concentration, agar dilution; conditions: trypticase soy agar, 2-fold serial dilutions
Staphylococcus aureus = test: Minimum inhibitory concentration, agar dilution; conditions: trypticase soy agar, 2-fold serial dilutions
Sarcina lutea = test: Minimum inhibitory concentration, agar dilution; conditions: trypticase soy agar, 2-fold serial dilutions
Pircularia oryzae = test: Minimum inhibitory concentration, agar dilution; conditions: trypticase soy agar, 2-fold serial dilutions
Description: Minimum inhibitory concentrations (MIC's) were determined respectively for the crude broth material, antibiotic A26201, antibiotic A26201-1, antibiotic A26201-2, and gardimycin against a number of different microorganisms. The following techniques were used to determine the MIC's:
Thirty ml aliquots of trypticase soy agar were respectively placed in individual tubes. The agar was melted and then cooled to about 45° to 50° C. A concentration (2-fold serial dilutions of the highest concentration tested) of test antibiotic was added to each individual tube. Each test mixture was stirred and poured into an individual petri plate so that each petri plate contained a single concentration of antibiotic. When the agar hardened, the plates were inoculated with either aerobic or anaerobic test organisms. The plates inoculated with aerobic organisms were incubated at 37° C. for 24 hours and read for bacterial growth. The same plates were again incubated at 30° C. for an additional 48 hours at which point they were checked for yeast and fungal growth. The plates inoculated with anaerobic organisms were incubated at 37° C. in an anaerobic chamber and read at 48 hours.

Streptococcus mutans = test: Minimum inhibitory concentration, agar dilution; conditions: trypticase soy agar, 2-fold serial dilutions
[1] = test system: Fusobacterium necrophorum; test: Minimum inhibitory concentration, agar dilution; conditions: trypticase soy agar, 2-fold serial dilutions
Mucor miehei = test: Minimum inhibitory concentration, agar dilution; conditions: trypticase soy agar, 2-fold serial dilutions
Streptococcus bovis = test: Minimum inhibitory concentration, agar dilution; conditions: trypticase soy agar, 2-fold serial dilutions
Clostridium septicum = test: Minimum inhibitory concentration, agar dilution; conditions: trypticase soy agar, 2-fold serial dilutions
Bacillus subtilis = test: Minimum inhibitory concentration, agar dilution; conditions: trypticase soy agar, 2-fold serial dilutions
Clostridium perfringens = test system: Clostridium perfringens
Streptococcus faecalis = test: Minimum inhibitory concentration, agar dilution; conditions: trypticase soy agar, 2-fold serial dilutions
Lactobacillus casei = test: Minimum inhibitory concentration, agar dilution; conditions: trypticase soy agar, 2-fold serial dilutions
Salmonella typhimurium = test: Minimum inhibitory concentration, agar dilution; conditions: trypticase soy agar, 2-fold serial dilutions
Erwinia amylovora = test: Minimum inhibitory concentration, agar dilution; conditions: trypticase soy agar, 2-fold serial dilutions
Escherchia coli = test: Minimum inhibitory concentration, agar dilution; conditions: trypticase soy agar, 2-fold serial dilutions
Bacteroides fragilis = test: Minimum inhibitory concentration, agar dilution; conditions: trypticase soy agar, 2-fold serial dilutions
Candida albicans = test: Minimum inhibitory concentration, agar dilution; conditions: trypticase soy agar, 2-fold serial dilutions
Bacteroides multiacidus = test: Minimum inhibitory concentration, agar dilution; conditions: trypticase soy agar, 2-fold serial dilutions

With gardimycin the MIC (Pseudomonas aeruginosa) was greater than 75 µg/mL, the MIC (Aspergillus niger) was greater than 75 µg/mL and the MIC (Actinomyces viscosus) was 12.5 µg/mL. It also gave an MIC (Staphylococcus aureus) of 75 µg/mL, an MIC (Sarcina lutea) of 1.5 µg/mL and an MIC (Pircularia oryzae) greater than 75 µg/mL. It also gave an MIC (Streptococcus mutans) greater than 75 µg/mL, an MIC [1] greater than 75 µg/mL and an MIC (Mucor miehei) greater than 75 µg/mL. It also gave an MIC (Streptococcus bovis) greater than 75 µg/mL, an MIC (Clostridium septicum) of 3.1 µg/mL and an MIC (Bacillus subtilis) of 75 µg/mL. The MIC (Clostridium perfringens) was 3.1 µg/mL, the MIC (Streptococcus faecalis) was 25 µg/mL and the MIC (Lactobacillus casei) was greater than 75 µg/mL. The MIC (Salmonella typhimurium) was greater than 75 µg/mL, the MIC (Erwinia amylovora) was greater than 75 µg/mL and the MIC (Escherchia coli) was greater than 75 µg/mL. It also gave an MIC (Bacteroides fragilis) greater than 50 µg/mL, an MIC (Candida albicans) greater than 75 µg/mL and an MIC (Bacteroides multiacidus) greater than 50 µg/mL.
